In patent US20120329879A1, “BETA-ADRENERGIC RECEPTOR AGONISTS AND USES THEREOF” (THE UNIVERSITY OF TENNESSEE RESEARCH FOUNDATION, priority 2010, published 2012):

Key:
[1] = tested on: Rat Müller cells (rMC-1); experiment: TNFalpha and cleaved caspase 3 ELISA in Müller cells cultured in high glucose; assay type: cell-based
Method: (§1) Human retinal endothelial cells (HREC) were purchased from Cell Systems (Kirkland, Wash.) and grown in either basal (5 mM glucose) or growth (25 mM glucose) media. Both media is supplemented with 10% FBS and antibiotics. The day prior to experiments, cells are serum-starved for 18-24 hours. Rat Müller cells (rMC-1) were grown in DMEM medium with 5 mM glucose or 25 mM glucose. Media was supplemented with 10% FBS and antibiotics. Cells were serum starved prior to all experiments for 18-24 hours.
(§2) Human retinal endothelial cells (HREC) and rat Muller cells (rMC-1) in both glucose conditions were treated with Compound 2 at doses of 10 nM, 50 nM, 100 nM, 1 μM, and 10 μM of Compound 2. Cells of each type were grown in medium containing L-glucose to control for changes in osmolarity. 10 μM isoproterenol was also used for each condition as a positive control. Müller cells were treated for 1 hour and 24 hours, while HREC were treated for 30 and 60 minutes.
(§3) Following treatment, cells were collected into lysis buffer containing protease and phosphatase inhibitors. ELISA analyses for TNFalpha, cleaved caspase 3, and PKA were done according to manufacturers instructions. Data is compared against non-treated cells and cells at the various doses. A Kruskal-Wallis test is done, with a Dunn's test for secondary analyses. […] The dose that decreases TNFalpha and caspase 3 levels also increases PKA activity.

[2] = tested on: Human retinal endothelial cells (HREC); experiment: TNFalpha and cleaved caspase 3 ELISA in retinal endothelial cells cultured in high glucose; assay type: cell-based
Method: as §1, §2, §3

[3] = tested on: retina; settings: given systemically to rodents; cited from earlier work
[4] = Body weight, blood glucose, blood pressure and intraocular pressure in streptozotocin diabetic rats on eye drop therapy; assay type: in vivo, rat; settings: rats, 50 mM topical dose of isoproterenol
Method: Male Lewis rats purchased from Charles River were used. Diabetic rats received a single injection of 60 mg/kg streptozotocin (Fisher, Pittsburgh, Pa.). […] All rats were weighed weekly and only rats with non-fasting blood glucose levels >250 mg/dl were considered diabetic. The designation of diabetic was made at the beginning of the experiments. Glucose was measured bimonthly. No insulin was administered to the rats at any time. To determine whether topical application of Compound 2 could reach the retina and elicit response, dose and time course studies were performed. For those studies, animals were made diabetic for 2 months using STZ. For 4 days, rats received a variety of doses of either Compound 2 (1 mM to 20 mM) or PBS once or twice each day. After the 4 days of eye drop treatment to both eyes, the diabetic and control animals were euthanized. […] After determining the optimal dose and time course for eye drop treatment for Compound 2, three groups of rats were used for this part of the study (control, diabetic (Diabetic), and diabetic+eye drop (Diab+2). Within 1 week of STZ-injection, 12 rats were put onto eye drop therapy. Rats on the eye drop therapy received a daily application of 4 drops of 1 mM Compound 2 to each eye. To verify that insulin levels were lost in the diabetic animals, insulin ELISA (Rat/Mouse Insulin ELISA kit, Linco, St. Charles, Mo.) was done on blood sampled from all rats at 2 months of age. Rats were sacrificed at 2 or 8 months of age. […] Analyses on the rats were done for acute changes (8 weeks of diabetes, 45 rats) and chronic changes (8 months of diabetes, 45 rats). […] Each month, all rats were tested for visual function: electroretinogram (ERG) and live retinal imaging were performed using Optical Coherence Topography (OCT). […] While the animals were asleep for ERG analyses, blood pressure and pulse were monitored to detect potential negative cardiovascular events.

[5] = Müller cells in high glucose, 50 nM, vs non-treated
[6] = REC in high glucose, 50 nM, vs non-treated
[7] = Müller cells, 10 μM isoproterenol

**Q.** Which results are given for `COc1cc(CCNC[C@H](O)c2cc(O)cc(O)c2)cc(OC)c1OC.Cl` [Compound 4, 5-(1-hydroxy-2-[2-(3,4,5-trimethosy-phenyl)-ethylamino]-ethyl)-benzene-1,3-diol hydrochloride]?
**A.** beta-2-adrenergic receptor activity (ELISA data) ([1]; Muller cells, 50 nM): has more beta-2-adrenergic receptor activity; effectiveness and speed compared with Compound 2 ([1]; Muller cells, 50 nM): more effective and works faster than Compound 2; TNFalpha levels, in words [1, 5]: reduce TNFalpha levels; cleaved caspase 3 levels, in words [1, 5]: reduce TNFalpha levels and the cleavage of caspase 3; beta-2-adrenergic receptor activity (ELISA data) ([2]; REC cells, 50 nM): has more beta-2-adrenergic receptor activity; TNFalpha levels, in words [2, 6]: reduce TNFalpha levels; cleaved caspase 3 levels, in words [2, 6]: reduce TNFalpha levels and the cleavage of caspase 3; time to activate response compared with Compound 2 ([2]; retinal endothelial cells, 50 nM): does take longer to activate response

**Q.** Which “electrical activity in the retina” value [3] does the source give for `CC(C)NCC(O)COc1cccc2ccccc12` (centres unmarked) [propranolol] here?
**A.** produced significant deficits in the electrical activity in the retina

**Q.** And the “growth factors that may promote neovascularization” value [3]?
**A.** activated growth factors that may promote neovascularization

**Q.** With `COc1cc(CCNC[C@H](O)c2ccc(O)c(O)c2)cc(OC)c1OC.Cl` (single isomer, unassigned) [R-isomer of Compound 2] as the compound, how does the “TNFalpha concentration and cleaved caspase 3: comparison of isomers” value ([1]; Muller cells, 50 nM, 1 hour or 24 hours) read?
**A.** superior to the S-isomer of Compound 2 and racemic Compound 2

**Q.** And the “TNFalpha concentration and cleaved caspase 3: comparison of isomers” value ([2]; retinal endothelial cells, 50 nM, 1 hour or 24 hours)?
**A.** superior to the S-isomer of Compound 2 and racemic Compound 2

**Q.** Which “TNFalpha levels, in words” value [1, 5] does the source give for `COc1cc(CCNC[C@H](O)c2ccc(O)c(O)c2)cc(OC)c1OC` [Compound 3, 4-[1-hydroxy-2-(1-ethylamino-3-,4-,5-trimethoxyphenyl)ethyl]benzene-1,2-diol] here?
**A.** significantly reduced TNFalpha within 1 hour

**Q.** And the “cleaved caspase 3 levels, in words” value [1, 5]?
**A.** reduced the cleavage of caspase 3

**Q.** What about the “TNFalpha levels, in words” value [2, 6] of the same compound?
**A.** reduced

**Q.** And the “cleaved caspase 3 levels, in words” value [2, 6]?
**A.** reduced the cleavage of caspase 3

**Q.** Which “negative cardiovascular events (blood pressure and pulse)” value [4] does the source give for `CC(C)NCC(O)c1ccc(O)c(O)c1` (centres unmarked) [isoproterenol, 4-[1-hydroxy-2-(isopropylamino)ethyl]benzene-1,2-diol, reference compound] here?
**A.** these events have not been observed

**Q.** What about the “concentration required for the same response (reduction of cleaved caspase 3 and TNFalpha)” value ([1]; Müller cells in high glucose, compared with 50 nM Compound 2) of the same compound?
**A.** 10 µM

**Q.** What about the “cleaved caspase 3 levels, in words” value ([1]; Müller cells in hyperglycemic conditions, isoproterenol, concentration not given) of the same compound?
**A.** can decrease cleaved caspase 3 levels

**Q.** And the “time for blockade of apoptosis” value [1, 7]?
**A.** 24 h

**Q.** And the “time for inhibition of TNFalpha activity” value [1, 7]?
**A.** ≤ 1 h

**Q.** And the “cleaved caspase 3 levels, in words” value ([2]; REC in hyperglycemic conditions, isoproterenol, concentration not given)?
**A.** can decrease cleaved caspase 3 levels

**Q.** What about the “TNFalpha reduction, in words” value ([2]; retinal endothelial cells, 10 μM in vitro) of the same compound?
**A.** did not significantly reduce TNFalpha
